Data set [1] has as its target Peroxisome proliferator-activated receptor gamma/Nuclear receptor coactivator 2 (Homo sapiens, UniProt P37231). The experiment in a line: TR-FRET dose response biochemical High Throughput Screening assay for agonists of the steroid receptor coactivator 2 (SRC-2) recruitment by the peroxisome proliferator-activated receptor gamma (PPAR gamma): non-selective agonists. [Related pubchem assays: 1297, 1032 ]. The class given is functional. (In general: Time-resolved FRET reads energy transfer from a long-lived donor to a nearby acceptor.)

For data set [2], the target named is Peroxisome proliferator-activated receptor gamma/Nuclear receptor coactivator 1 (Homo sapiens, UniProt P37231). The experiment in a line: TR-FRET dose response biochemical High Throughput Screening assay for agonists of the steroid receptor coactivator 1 (SRC-1) recruitment by the peroxisome proliferator-activated receptor gamma (PPAR gamma): non-selective agonists. [Related pubchem assays (depositor defined):AID1300, AID1808, AID504735, AID631]. It counts as protein assay.

For data set [3], the target named is Peroxisome proliferator-activated receptor gamma/Nuclear receptor coactivator 3 (Homo sapiens, UniProt P37231). The experiment in a line: TR-FRET dose response biochemical High Throughput Screening assay for agonists of the steroid receptor coactivator 3 (SRC-3) recruitment by the peroxisome proliferator-activated receptor gamma (PPAR gamma): non-selective agonists. [Related pubchem assays: 1301 (Confirmation screen.), 1048 (Primary screen.)]. It counts as functional.

Data set [4] concerns the target Voltage-dependent T-type calcium channel subunit alpha-1H (Homo sapiens, UniProt O95180). The experiment in a line: Cav3.2 T-type channel inhibitors, synthesized analogs, SAR follow-up, cell-based, synthetic library set 2, HEK293 HH8, Fluo-4 (AID 493023). It counts as functional.
The target in data set [5] is T1, Cytochrome P450 1A2 (Homo sapiens, UniProt P05177).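 Further: PubChem cytochrome P450 panel assay, CYP1A2 panel member.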
T1 sequence (P05177 whole entry): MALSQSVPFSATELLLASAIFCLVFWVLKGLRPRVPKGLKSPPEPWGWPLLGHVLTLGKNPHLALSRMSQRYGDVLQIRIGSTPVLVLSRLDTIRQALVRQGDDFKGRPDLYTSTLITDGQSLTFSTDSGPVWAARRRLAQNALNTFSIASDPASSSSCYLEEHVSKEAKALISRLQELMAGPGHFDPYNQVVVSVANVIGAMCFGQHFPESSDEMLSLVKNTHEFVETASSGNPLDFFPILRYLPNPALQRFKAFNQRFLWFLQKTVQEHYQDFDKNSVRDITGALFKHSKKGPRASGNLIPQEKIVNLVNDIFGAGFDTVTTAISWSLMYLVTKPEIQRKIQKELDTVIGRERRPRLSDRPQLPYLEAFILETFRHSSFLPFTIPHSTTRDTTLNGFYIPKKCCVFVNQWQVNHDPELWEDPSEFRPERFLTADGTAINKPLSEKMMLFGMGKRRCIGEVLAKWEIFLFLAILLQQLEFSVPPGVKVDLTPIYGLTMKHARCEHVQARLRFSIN

The target of data set [6] is Intestinal-type alkaline phosphatase (Homo sapiens, UniProt P09923). Briefly: human intestinal alkaline phosphatase activators, dose response, biochemical, luminescence, uHTS hits (AID 463120). The class given is functional.
Data set [7] concerns the target Cytochrome P450 2D6 (Homo sapiens, UniProt P10635).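 Further: CYP2D6 member of a cytochrome P450 panel assay.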
Data set [8] concerns the target Cytochrome P450 2C19 (Homo sapiens, UniProt P33261). Briefly: Cytochrome panel assay with activity outcomes. Panel member name: p450-cyp2c19 Compounds with AC50 equal or less than 10 uM are considered active. It counts as functional.

Usually EC50 stands for the concentration needed to bring the measured effect to its halfway point. Broadly, the AC50 is the midpoint of the concentration-response curve, whichever way the signal moves.

Molecules are shown by their SMILES. Active and inactive are the calls of the source.

Sequence of Peroxisome proliferator-activated receptor gamma/Nuclear receptor coactivator 1 (P37231 whole entry): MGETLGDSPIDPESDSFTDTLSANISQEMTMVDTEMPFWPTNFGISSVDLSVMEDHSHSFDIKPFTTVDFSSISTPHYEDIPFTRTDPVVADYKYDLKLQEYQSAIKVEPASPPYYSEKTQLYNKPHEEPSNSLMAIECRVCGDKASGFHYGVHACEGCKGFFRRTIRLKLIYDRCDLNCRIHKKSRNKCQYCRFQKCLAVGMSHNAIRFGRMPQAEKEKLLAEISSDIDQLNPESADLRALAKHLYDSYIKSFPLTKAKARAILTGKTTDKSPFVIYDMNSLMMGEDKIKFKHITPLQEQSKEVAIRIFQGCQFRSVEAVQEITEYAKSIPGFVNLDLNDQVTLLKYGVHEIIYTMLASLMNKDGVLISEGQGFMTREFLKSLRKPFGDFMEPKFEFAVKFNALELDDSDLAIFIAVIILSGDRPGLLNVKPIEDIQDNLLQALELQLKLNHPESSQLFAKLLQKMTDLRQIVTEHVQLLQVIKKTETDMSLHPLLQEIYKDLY
Sequence of Peroxisome proliferator-activated receptor gamma/Nuclear receptor coactivator 1 (Q15788 whole entry, further chain): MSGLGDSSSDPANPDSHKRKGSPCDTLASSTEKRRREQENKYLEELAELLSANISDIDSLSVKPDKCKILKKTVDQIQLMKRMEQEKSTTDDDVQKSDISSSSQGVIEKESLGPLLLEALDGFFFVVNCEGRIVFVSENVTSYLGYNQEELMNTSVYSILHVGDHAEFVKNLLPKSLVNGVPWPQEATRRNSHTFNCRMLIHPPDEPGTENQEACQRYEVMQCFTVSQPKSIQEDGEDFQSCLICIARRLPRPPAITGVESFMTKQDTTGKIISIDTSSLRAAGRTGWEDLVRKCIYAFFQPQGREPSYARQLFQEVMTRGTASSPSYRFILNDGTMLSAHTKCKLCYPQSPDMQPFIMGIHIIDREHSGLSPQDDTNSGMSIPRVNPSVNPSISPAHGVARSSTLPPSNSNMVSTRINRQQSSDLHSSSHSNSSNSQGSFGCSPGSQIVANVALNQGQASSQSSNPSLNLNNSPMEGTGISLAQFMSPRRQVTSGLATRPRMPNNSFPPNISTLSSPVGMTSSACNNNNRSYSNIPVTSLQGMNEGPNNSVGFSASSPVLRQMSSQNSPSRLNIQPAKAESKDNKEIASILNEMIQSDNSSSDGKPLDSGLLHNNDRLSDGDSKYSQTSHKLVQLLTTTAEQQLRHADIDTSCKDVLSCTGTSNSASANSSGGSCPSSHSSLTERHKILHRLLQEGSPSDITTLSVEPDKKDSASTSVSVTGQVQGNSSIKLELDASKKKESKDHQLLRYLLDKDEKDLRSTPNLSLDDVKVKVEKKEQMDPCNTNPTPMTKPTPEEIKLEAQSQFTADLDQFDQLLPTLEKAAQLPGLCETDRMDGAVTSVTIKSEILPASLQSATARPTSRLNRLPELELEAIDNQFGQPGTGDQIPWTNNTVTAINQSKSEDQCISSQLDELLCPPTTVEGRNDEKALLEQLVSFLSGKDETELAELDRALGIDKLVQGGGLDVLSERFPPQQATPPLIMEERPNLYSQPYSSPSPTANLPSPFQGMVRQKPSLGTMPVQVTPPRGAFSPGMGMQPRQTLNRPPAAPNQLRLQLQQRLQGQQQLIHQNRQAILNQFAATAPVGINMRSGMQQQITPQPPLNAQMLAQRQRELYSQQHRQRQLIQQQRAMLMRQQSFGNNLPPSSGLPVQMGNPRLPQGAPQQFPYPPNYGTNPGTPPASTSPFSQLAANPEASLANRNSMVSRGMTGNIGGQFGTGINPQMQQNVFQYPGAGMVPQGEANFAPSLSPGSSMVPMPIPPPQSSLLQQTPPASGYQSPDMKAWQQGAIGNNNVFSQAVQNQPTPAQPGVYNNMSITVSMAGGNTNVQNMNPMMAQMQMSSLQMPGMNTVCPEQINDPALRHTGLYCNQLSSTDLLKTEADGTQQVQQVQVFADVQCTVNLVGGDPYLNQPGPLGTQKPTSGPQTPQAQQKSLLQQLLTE
Sequence of Peroxisome proliferator-activated receptor gamma/Nuclear receptor coactivator 3 (P37231 whole entry): as the sequence (P37231 whole entry) above
Sequence of Peroxisome proliferator-activated receptor gamma/Nuclear receptor coactivator 3 (Q9Y6Q9 whole entry, further chain): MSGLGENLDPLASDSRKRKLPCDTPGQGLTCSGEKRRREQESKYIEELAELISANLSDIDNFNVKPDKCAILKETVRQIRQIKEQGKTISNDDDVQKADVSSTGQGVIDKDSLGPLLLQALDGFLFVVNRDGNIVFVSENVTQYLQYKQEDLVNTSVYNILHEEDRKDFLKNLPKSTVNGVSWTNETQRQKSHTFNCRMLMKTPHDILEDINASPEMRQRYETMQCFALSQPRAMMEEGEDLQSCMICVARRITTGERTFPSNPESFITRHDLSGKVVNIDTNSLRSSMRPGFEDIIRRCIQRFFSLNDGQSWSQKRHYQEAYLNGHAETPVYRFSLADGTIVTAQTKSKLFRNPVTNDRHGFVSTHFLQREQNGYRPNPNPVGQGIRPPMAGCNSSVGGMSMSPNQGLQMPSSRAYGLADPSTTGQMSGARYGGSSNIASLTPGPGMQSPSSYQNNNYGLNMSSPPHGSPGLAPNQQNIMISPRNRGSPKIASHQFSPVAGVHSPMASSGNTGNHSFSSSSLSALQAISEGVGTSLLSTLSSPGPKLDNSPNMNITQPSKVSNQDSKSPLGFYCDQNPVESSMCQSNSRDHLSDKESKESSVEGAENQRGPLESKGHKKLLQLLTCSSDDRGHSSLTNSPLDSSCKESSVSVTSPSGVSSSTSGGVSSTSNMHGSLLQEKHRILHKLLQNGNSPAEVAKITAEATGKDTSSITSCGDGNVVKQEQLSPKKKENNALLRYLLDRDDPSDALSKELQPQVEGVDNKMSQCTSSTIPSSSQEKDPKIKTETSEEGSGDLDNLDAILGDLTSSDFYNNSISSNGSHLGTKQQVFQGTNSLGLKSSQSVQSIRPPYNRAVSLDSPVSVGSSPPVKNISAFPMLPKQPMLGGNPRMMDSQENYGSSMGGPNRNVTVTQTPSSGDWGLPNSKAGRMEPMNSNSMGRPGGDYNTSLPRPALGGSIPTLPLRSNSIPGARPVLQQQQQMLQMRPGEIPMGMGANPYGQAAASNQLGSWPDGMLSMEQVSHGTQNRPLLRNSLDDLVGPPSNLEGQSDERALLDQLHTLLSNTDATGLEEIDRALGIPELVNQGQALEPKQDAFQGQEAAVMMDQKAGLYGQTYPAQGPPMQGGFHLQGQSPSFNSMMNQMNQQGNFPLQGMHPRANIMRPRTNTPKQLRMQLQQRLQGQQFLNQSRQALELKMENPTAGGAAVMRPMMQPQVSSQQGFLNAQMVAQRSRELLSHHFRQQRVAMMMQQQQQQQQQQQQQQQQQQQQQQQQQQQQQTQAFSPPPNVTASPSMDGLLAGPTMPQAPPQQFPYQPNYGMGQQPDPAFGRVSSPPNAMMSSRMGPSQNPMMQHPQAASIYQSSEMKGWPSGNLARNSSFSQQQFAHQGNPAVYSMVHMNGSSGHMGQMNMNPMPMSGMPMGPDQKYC
Sequence of Cytochrome P450 2C19 (P33261 whole entry): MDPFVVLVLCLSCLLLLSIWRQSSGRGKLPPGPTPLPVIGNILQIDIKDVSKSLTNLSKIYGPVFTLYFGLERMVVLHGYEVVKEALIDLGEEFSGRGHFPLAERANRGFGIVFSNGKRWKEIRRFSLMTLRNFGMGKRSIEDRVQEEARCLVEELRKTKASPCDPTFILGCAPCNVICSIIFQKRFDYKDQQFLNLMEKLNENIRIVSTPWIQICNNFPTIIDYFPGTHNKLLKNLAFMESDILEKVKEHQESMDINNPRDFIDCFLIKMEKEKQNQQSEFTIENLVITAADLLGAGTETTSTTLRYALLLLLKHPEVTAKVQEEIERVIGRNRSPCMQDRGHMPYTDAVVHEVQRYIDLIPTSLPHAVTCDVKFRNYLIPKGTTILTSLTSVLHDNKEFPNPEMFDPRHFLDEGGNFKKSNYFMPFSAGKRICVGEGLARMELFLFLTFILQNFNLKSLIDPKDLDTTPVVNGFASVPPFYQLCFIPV
Sequence of Cytochrome P450 2D6 (P10635 whole entry): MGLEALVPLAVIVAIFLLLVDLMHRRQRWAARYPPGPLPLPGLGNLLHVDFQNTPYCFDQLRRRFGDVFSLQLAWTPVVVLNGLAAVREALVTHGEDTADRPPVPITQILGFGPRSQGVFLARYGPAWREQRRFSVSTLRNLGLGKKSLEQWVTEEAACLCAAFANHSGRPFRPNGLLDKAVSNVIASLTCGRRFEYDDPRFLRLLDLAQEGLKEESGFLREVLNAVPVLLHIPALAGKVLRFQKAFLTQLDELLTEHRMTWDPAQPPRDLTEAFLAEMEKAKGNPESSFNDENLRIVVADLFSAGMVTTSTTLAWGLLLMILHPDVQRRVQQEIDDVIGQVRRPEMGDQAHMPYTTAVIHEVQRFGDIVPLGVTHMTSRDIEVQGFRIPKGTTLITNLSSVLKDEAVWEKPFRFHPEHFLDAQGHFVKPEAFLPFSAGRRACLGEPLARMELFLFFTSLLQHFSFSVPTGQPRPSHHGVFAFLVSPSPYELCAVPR

As for `COc1ccc2c(c1)nc(SCC(=O)c1ccc(Br)s1)n2C`, the concentration giving a half-maximal response (EC50) was 27.7 µM (not active) in data set [1], > 79.4 µM (inactive) in data set [2] and > 79.4 µM (not active) in data set [3].

With `CC(C)(C)CCN1CCC[C@@H](NC(=O)c2cc(Cl)cc(Cl)c2)C1`, the EC50 in data set [4] is 10 µM (active).

For the compound `COc1ccc(C(=O)Nc2cccc3c2C(=O)NC3=O)cc1S(=O)(=O)N1CCOCC1`, the concentration at half-maximal activity (AC50) in data set [5] is 1 µM (inconclusive); in data set [7], “inconclusive”; in data set [8], “inconclusive”. In data set [6], the EC50 was > 100 µM (inactive).

Values taken from ChEMBL document CHEMBL1201862, “PubChem BioAssay data set” (2004).
